Values quoted from earlier work as cited in patent US20230157980A1, “METHODS FOR TREATING HEARING LOSS INCIDENT TO COCHLEAR IMPLANT SURGERY” (HOUGH EAR INSTITUTE, priority 2018, published 2023).

Test system: hearing loss caused by cochlear implantation

CC(=O)N[C@@H](CS)C(=O)O [NAC, N-acetylcysteine]
hearing improvement (local NAC, 32 kHz, 4-week post insertion time point): barely significant hearing improvement
protective effect on hearing (local NAC, lower frequencies (below 32 kHz)): no protective effect
effect on improving hearing (local administration of NAC): only modest and transient effects
